Experiment [1] concerns P. aeruginosa. Nature of the experiment: Time-kill / light-dose experiments, P. aeruginosa. Type of experiment: cell-based, Pseudomonas aeruginosa. Conditions: for light dose for complete eradication: 0.625 to 5 μM of MM, 405 nm; for time to reduce cell number to limit of detection: 2×MIC, 146 mW cm^−2 405 nm. On the procedure:
(§1) Serial dilutions of irradiated cell suspensions were prepared in PBS. A volume of 10 AL of the appropriate serial dilutions was spot-plated onto LB agar plates. Following overnight incubation at 30 or 37 ° C, depending on the strain, bacterial viability was assessed as colony forming units (CFU) per mL. Results were expressed as log (N/NO) whereby N is the CFU mL^−1 at each irradiation time point and NO is the initial CFU mL^−1 of the corresponding sample. Only dilutions that yielded 10-100 colonies were counted.

Experiment [2] relates to S. epidermidis. The experiment in a line: MIC, S. epidermidis. Type of experiment: cell-based. As to conditions: Staphylococcus epidermidis, read-out: MIC of MM. As to the method:
(§2) The appropriate volume of an MM stock at 8 mM necessary to achieve a concentration ranging from 0.3125 to 40 μM was pipetted into a 2 mL microcentrifuge tube to which 1 mL of cell suspension prepared as previously described was added. Corresponding negative controls (DMSO only) were prepared in the same way. The mixture was gently mixed by pipetting and incubated in the dark at 30 or 37 ° C, depending on the strain, for 30 min with agitation (220 rpm). Afterward, MM- or DMSO-treated cells were dispensed in one well of a 24-well plate positioned in the center of the light beam (405 nm LED Light, Prizmatix, UHP—F-5-405) placed at the appropriate distance necessary to achieve the desired light intensity of 304 mW cm-2, 146 mW cm2 or 87 mW cm2, as measured with a handheld digital power meter console coupled to an S415C thermal power sensor head (Thorlabs, Newton, MA, USA). The temperature during irradiation was monitored using a thermocouple probe (Model SC-TT-K-30-36-PP; Omega Engineering, Inc., Stanford, CT, USA). Samples were agitated during irradiation. Dark controls were prepared as previously described except that no irradiation was provided. […]

The test system of experiment [3] is E. coli. Nature of the experiment: Electron microscopy (TEM, SEM) of E. coli. The class given is cell-based, Escherichia coli. As to conditions: 0.5×MIC, 43.8 J cm^−2. As to the method: E. coli was cultured to mid-log phase in MHB media. Cells were collected and resuspended in PBS (1×) to an OD600 of ≈0.05. […] Cells were then irradiated for 5 min at 146 mW cm-2 (43.8 J cm^−2) after which cells were fixed with Karnovsky's fixative (Carlson et al., 2003), and post-fixed with 1% osmium, and dehydrated with a series of ethanol washes. For TEM, samples were embedded in epoxy resin (PolyBed 812; Polyscienses, Inc., Warrington, PA, United States) after dehydration in a graduated 50-100% ethanol concentration series of washes. Ultrathin sections (65 nm) were cut using a Leica EM UC7 ultramicrotome (Leica Microsystems, Wetzlar, Germany) and post-stained with uranyl acetate and lead citrate. Specimens were observed using a JEOL JEM2100 TEM ([…], Japan) operating at an accelerating voltage of 80 kV. For SEM, following ethanol dehydration samples were critical point dried using a Leica EM CPD300 (Leica Microsystems, Wetzlar, Germany), sputter-coated with 10 nm of gold, and imaged with an FEI Apreo SEM (FEI Apreo, ThermoFisher Scientific, Waltham, MA) using a secondary electron detector.

Experiment [4] has as its system B. cereus. The experiment in a line: MIC, B. cereus. The class given is cell-based. As to conditions: Bacillus cereus, read-out: MIC of MM. As to the method: as §2
In experiment [5] the test system is A. baumannii. The experiment in a line: Time-kill / light-dose experiments, A. baumannii. The class given is cell-based, Acinetobacter baumannii. As to conditions: highest concentration of MM (5 μM), 405 nm. On the procedure:
as §1

Experiment [6] has as its system C. albicans. The experiment in a line: MIC, visible-light-activated MMs and conventional antifungals, C. albicans. Type of experiment: cell-based, Candida albicans (ATCC 18804). As to conditions: Candida albicans, read-out: MIC of MM. The procedure, abridged:
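C. albicans suspensions (~10^4 CFU/mL in saline, CLSI) incubated 30 min in the dark with MMs, then irradiated with stirring at 405 nm, 292 mW cm^−2 for 5 min (87.6 J cm^−2). Cells then grown in MOPS-buffered RPMI 1640 (pH 7.0) at 30 °C for 48 h; MIC is lowest concentration with no visible growth; conventional antifungals tested likewise.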

Experiment [7] concerns B. cepacia. The experiment in a line: MIC, B. cepacia. The class given is cell-based. As to conditions: Burkholderia cepacia, read-out: MIC of MM. On the procedure: as §2

Each structure is given as a SMILES string.

For orientation: MIC means the lowest concentration that inhibits growth of the organism. `C[C@@H]1Cc2ccc3ccccc3c2/C1=C1\c2ccccc2Sc2cc(NCCN)ccc21` (racemic) [MM 6, N^1-(9-(2-methyl-2,3-dihydro-1H-cyclopenta[a]naphthalen-1-ylidene)-9H-thioxanthen-3-yl)ethane-1,2-diamine]: the “light dose for complete eradication” value is recorded as 16 J cm^−2 in experiment [1] and “at least 40 J cm^−2” in experiment [5]. For the same compound, the “time to reduce cell number to limit of detection” value in experiment [1] worked out at 10 min. Further, the MIC in experiment [2] is 0.078 µM; in experiment [4], 10 µM; in experiment [6], ≤ 5 µM; in experiment [7], 10 µM. For the same compound, in experiment [3], the “cell morphology (TEM)” value is “substantial changes in cell morphology”.

`C[C@@H]1Cc2ccc3ccccc3c2/C1=C1\c2ccccc2Sc2cc(NCCN(C)C)ccc21` [MM 1, N^1N^1-dimethyl-N^2-(9-(2-methyl-2,3-dihydro-1H-cyclopenta[a]naphthalen-1-ylidene)-9H-thioxanthen-3-yl) ethane-1,2-diamine]: the “light dose for complete eradication” value in experiment [1] was 16 J cm^−2; in experiment [5], “at least 40 J cm^−2”. The “time to reduce cell number to limit of detection” value in experiment [1] is 3 min. For the same compound, the MIC was 0.078 µM in experiment [2], 10 µM in experiment [4], ≤ 5 µM in experiment [6] and 10 µM in experiment [7]. In experiment [3], the “cell morphology (TEM)” value is recorded as “substantial changes in cell morphology”.

The values above are taken from patent US20260355318A1, “MOLECULAR MACHINES FOR TREATMENT OF CANCER, FUNGAL INFECTIONS, OR BACTERIAL INFECTIONS” (priority 2022, published 2026).
